Series [1] deals with T1, Nociceptin receptor (Rattus norvegicus, UniProt P35370). In words: Displacement of [3H]nociceptin from rat ORL1 receptor expressed in african green monkey COS7 cells. The class given is cell-based, COS-7. Background: Displacement assays read how much labelled ligand stays bound in the presence of the test substance.
In series [2] the target is T1, Nociceptin receptor. In words: Activation of rat ORL1 receptor expressed in african green monkey COS7 cells by [35S]GTPgammaS binding assay. The class given is functional, cell-based, COS-7. (In general: Binding of GTPγS marks nucleotide exchange on a G protein.)
Series [3] in a line: Stability in presence of trypsin assessed as half life of compound hydrolysis. The class given is ADME.
Series [4] in a line: Stability in presence of rat brain trypsin assessed compound degradation after 60 mins by HPLC. The class given is ADME. As to conditions: read-out: Activity.
Series [5] can be described thus: Stability in presence of rat brain trypsin assessed as half life of compound hydrolysis in presence of trypsin inhibitor bacitracin by HPLC. Type of series: ADME, tissue-based. As to conditions: isolated protein.
Series [6] can be described thus: Stability in presence of rat brain trypsin assessed as half life of compound hydrolysis by HPLC. The class given is physicochemical.
Series [7] has as its target Nociceptin receptor (Rattus norvegicus) (UniProt P35370). Nature of the series: Activation of rat ORL1 receptor expressed in african green monkey COS7 cells assessed as stimulation of [35S]GTPgammaS binding relative to nociceptin. As to conditions: COS-7. The class given is functional, cell-based.

The results in this text go back to ChEMBL document CHEMBL1142464, “Synergistic effect of basic residues at positions 14-15 of nociceptin on binding affinity and receptor activation” (Bioorg Med Chem, 2008).

Bounds are passed on as bounds.

Nociceptin receptor (Rattus norvegicus), sequence (P35370 whole entry): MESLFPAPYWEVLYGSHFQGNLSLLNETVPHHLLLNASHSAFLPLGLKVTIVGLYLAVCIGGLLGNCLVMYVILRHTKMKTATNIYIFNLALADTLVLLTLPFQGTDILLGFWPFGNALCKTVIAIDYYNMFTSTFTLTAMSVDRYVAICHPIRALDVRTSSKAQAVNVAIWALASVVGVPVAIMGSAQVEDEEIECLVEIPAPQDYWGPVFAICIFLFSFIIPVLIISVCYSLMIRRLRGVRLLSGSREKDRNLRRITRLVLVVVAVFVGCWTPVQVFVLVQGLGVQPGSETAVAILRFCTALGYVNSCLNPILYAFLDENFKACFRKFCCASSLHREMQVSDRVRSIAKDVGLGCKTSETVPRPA
T1 sequence (P35370 whole entry): as above

By IC50 is commonly meant the point on the concentration scale where inhibition reaches its midpoint. The term EC50 denotes the concentration at which the effect is half-maximal. The molecule `C[C@H](NC(=O)CNC(=O)[C@@H](NC(=O)[C@H](Cc1ccccc1)NC(=O)CNC(=O)CNC(=O)[C@@H](N)Cc1ccccc1)[C@@H](C)O)C(=O)N[C@@H](CCCN=C(N)N)C(=O)N[C@@H](CCCCN)C(=O)N[C@@H](CO)C(=O)N[C@@H](C)C(=O)N[C@@H](CCCN=C(N)N)C(=O)N[C@@H](CCCCN)C(=O)N[C@@H](Cc1ccc(O)cc1)C(=O)N[C@@H](C)C(=O)N[C@@H](CC(N)=O)C(=O)N[C@@H](CCC(N)=O)C(=O)O` registered an IC50 in series [1] of 1.1 nM. Besides, the half-maximal effective concentration (EC50) in series [2] stood at 11 nM.

The term half-life denotes the time in which the quantity being followed falls by half. In series [1], `CC(C)C[C@H](NC(=O)[C@H](CCCCN)NC(=O)[C@H](CCCNC(=N)N)NC(=O)[C@H](C)NC(=O)[C@H](CO)NC(=O)[C@H](CCCCN)NC(=O)[C@H](CCCNC(=N)N)NC(=O)[C@H](C)NC(=O)CNC(=O)[C@@H](NC(=O)[C@H](Cc1ccccc1)NC(=O)CNC(=O)CNC(=O)[C@@H](N)Cc1ccccc1)[C@@H](C)O)C(=O)N[C@@H](CCCCN)C(=O)N[C@@H](CC(N)=O)C(=O)N[C@@H](CCC(N)=O)C(=O)O` came in with an IC50 of 0.41 nM. The same molecule showed a concentration for a half-maximal effect (EC50) in series [2] of 5.8 nM. Moreover, the half-life in series [3] turned out to be 20 min.

In series [1], `C[C@H](NC(=O)CNC(=O)[C@@H](NC(=O)[C@H](Cc1ccccc1)NC(=O)CNC(=O)CNC(=O)[C@@H](N)Cc1ccccc1)[C@@H](C)O)C(=O)N[C@@H](CCCN=C(N)N)C(=O)N[C@@H](CCCCN)C(=O)N[C@@H](CO)C(=O)N[C@@H](C)C(=O)N[C@@H](CCCN=C(N)N)C(=O)N[C@@H](CCCCN)C(=O)N[C@@H](CCCN=C(N)N)C(=O)N[C@@H](CCCCN)C(=O)N[C@@H](CC(N)=O)C(=O)N[C@@H](CCC(N)=O)C(=O)O` showed a 50% inhibitory concentration (IC50) of 0.21 nM. For the same molecule, the EC50 in series [2] came to 1.1 nM. Further, in series [4], the metabolised at 1 h was less than 10%. Further, the Stability result in series [5] was “Stable”. The values for the half-life in series [6] and in series [3] were 600 min and 30 min, respectively.

Turning to H-FGGFTGARKSARKWANQ-OH, the IC50 in series [1] was determined as 0.41 nM. A half-maximal response in series [2] (EC50) required 5.8 nM.

Take H-FGGFTGARKSARKKRNQ-OH: in series [1], the half-inhibitory concentration (IC50) is 0.21 nM. Further, it took 1.3 nM to reach a half-maximal effect in series [2] (EC50).

In series [1], H-FGGFTGARKSARKLVNQ-OH displayed a 50% inhibitory concentration (IC50) of 2.2 nM. The molecule also registered an EC50 in series [2] of 30 nM.

In series [1], H-FGGFTGARKSARKLARK-OH yielded an IC50 of 0.54 nM. Further, the EC50 in series [2] was found to be 2.7 nM.

Turning to `C[C@H](NC(=O)CNC(=O)[C@@H](NC(=O)[C@H](Cc1ccccc1)NC(=O)CNC(=O)CNC(=O)[C@@H](N)Cc1ccccc1)[C@@H](C)O)C(=O)N[C@@H](CCCNC(=N)N)C(=O)N[C@@H](CCCCN)C(=O)N[C@@H](CO)C(=O)N[C@@H](C)C(=O)N[C@@H](CCCNC(=N)N)C(=O)N[C@@H](CCCCN)C(=O)N[C@@H](CCCNC(=N)N)C(=O)N[C@@H](CCCCN)C(=O)N[C@@H](CC(N)=O)C(=O)N[C@@H](CCC(N)=O)C(=O)O`, the Activity in series [7] was 10%.

`CC(C)C[C@H](NC(=O)[C@H](CCCCN)NC(=O)[C@H](CCCN=C(N)N)NC(=O)[C@H](C)NC(=O)[C@H](CO)NC(=O)[C@H](CCCCN)NC(=O)[C@H](CCCN=C(N)N)NC(=O)[C@H](C)NC(=O)CNC(=O)[C@@H](NC(=O)[C@H](Cc1ccccc1)NC(=O)CNC(=O)CNC(=O)[C@@H](N)Cc1ccccc1)[C@@H](C)O)C(=O)N[C@@H](C)C(=O)N[C@@H](CC(N)=O)C(=O)N[C@@H](CCC(N)=O)C(=O)O` [NOCICEPTIN]: in series [4], the metabolised at 1 h was 10%. Further, the Stability entry in series [5] is “Stable”. The results for the half-life in series [6] and in series [3] were 480 min and 13 min, respectively.

In turn, H-FGGFTGARKSARKRANQ-OH displayed an IC50 in series [1] of 0.33 nM. In addition, a half-maximal response in series [2] (EC50) required 4 nM. Also, in series [3], the half-life was 23 min.

Molecule H-FGGFTGARKSARKVANQ-OH displayed a half-inhibitory concentration (IC50) in series [1] of 1.1 nM. In addition, the concentration for a half-maximal effect (EC50) in series [2] came to 15 nM.

Consider “H-FGGFTGARKRKRKLANQ-OH [listing 1 of 2 here]”, for which the IC50 in series [1] worked out at 0.94 nM. This molecule had an EC50 in series [2] of 86 nM.

In the case of H-FGGFTGARKSARKLRNQ-OH, the IC50 in series [1] came to 0.31 nM. Further, in series [2], the EC50 was 3.2 nM.

Consider H-FGGFTGARKSARKLYNQ-OH, for which the IC50 in series [1] came out at 1 nM. Further, it took 33 nM to reach a half-maximal effect in series [2] (EC50).

For the molecule H-FGGFTGARKSARKKANQ-OH, the IC50 in series [1] is 0.41 nM. Moreover, the EC50 in series [2] was found to be 4.1 nM.

H-FGGFTGARKSARKKKNQ-OH showed a half-inhibitory concentration (IC50) in series [1] of 0.16 nM. Also, the midpoint of the response in series [2], the EC50, lay at 1.1 nM.

For the molecule “H-FGGFTRKRKSARKLANQ-OH [listing 1 of 2 here]”, the Activity in series [7] amounted to 60%.

H-FGGFTGARKSARKRKRK-OH showed an IC50 in series [1] of 0.42 nM. The EC50 in series [2] was 2.3 nM.

In series [1], H-FGGFTGARKSARKFANQ-OH returned an IC50 of 1.1 nM. The EC50 in series [2] was 9 nM.

As for “H-FGGFTGARKRKRKLANQ-OH [listing 2 of 2 here]”, the Activity in series [7] was greater than 90%.

Regarding H-FGGFTGARKSARKLWNQ-OH, in series [1], the IC50 amounted to 2.1 nM. In series [2], the response was half-maximal at 50 nM (EC50).

Take H-FGGFTGARKSARKLFNQ-OH: the IC50 in series [1] was found to be 1 nM. Also, the EC50 in series [2] was 12 nM.

In turn, H-FGGFTGARKSARKRRNQ-OH had an IC50 in series [1] of 0.27 nM. In series [2], this molecule registered an EC50 of 0.98 nM.

For H-FGGFTGARKSARKAANQ-OH, in series [1], the concentration for half-maximal inhibition (IC50) was found to be 1.5 nM. For the same molecule, the midpoint of the response in series [2], the EC50, lay at 11 nM.

H-FGGFTGARKSARKLLNQ-OH yielded an IC50 in series [1] of 0.48 nM. In series [2], this molecule had a 50% effective concentration (EC50) of 10 nM.

Consider “H-FGGFTRKRKSARKLANQ-OH [listing 2 of 2 here]”, for which, in series [1], the IC50 stood at 13 nM. Moreover, the EC50 in series [2] is 870 nM.
